Where two headings read alike, the source gives them in different places.
How the values were obtained:
[1] = system: HIV-1; assay: NCI in vitro anti-HIV drug screen: XTT-formazan assay, protection of T4 lymphocytes (CEM) from HIV-1 cytopathic effects; type: cell-based, human immunodeficiency virus (HIV-1); details: for EC50: 144 h, HIV-1 infected CEM cells, 6 days, XTT, approximate values, read-out: EC50 (50% effective concentration against HIV cytopathic effects); for inhibition at 20 µM / activity at 20 µM: dose 2.00 × 10^-5 Molar; for inhibition at 2 µM / activity at 2 µM: dose 2.00 × 10^-6 Molar; for inhibition at 0.2 µM / activity at 0.2 µM: dose 2.00 × 10^-7 Molar; for TI50 (IC/EC), Therapeutic Index: IC50/EC50; for inhibition at 0.02 µM / activity at 0.02 µM: dose 2.00 × 10^-8 Molar; for inhibition at 6.32 µM / activity at 6.32 µM: dose 6.32 × 10^-6 Molar; for inhibition at 0.633 µM / activity at 0.633 µM: dose 6.33 × 10^-7 Molar; for inhibition at 0.0634 µM: read-out: Percent of Protection, dose 6.34 × 10^-8 Molar; for inhibition at 0.00635 µM: read-out: Percent of Protection, dose 6.35 × 10^-9 Molar; for activity at 0.0634 µM: dose 6.34 × 10^-8 Molar; for activity at 0.00635 µM: dose 6.35 × 10^-9 Molar
Description: Compounds of the present invention were evaluated for anti-HIV efficacy by the National Cancer Institute's (NCI) In Vitro Anti AIDS Drug Discovery Program.
(§1) The NCI procedure is fully described, for example, in a bulletin provided by the National Institutes of Health, National Cancer Institute, Bethesda, Md. 20892, all of which is incorporated herein by reference. As related in the NCI bulletin, the procedure is based on O. W. Weislow et al., "New soluble-formazan assay for HIV-1 cytopathic effects: application to high flux screening of synthetic and natural products for AIDS-antiviral activity", J. Natl. Cancer Inst. 81:577-586 (1989), and is used to test for compounds active against human immunodeficiency virus (HIV), and is designed to detect compounds active at any stage of the virus reproductive cycle. As further related in the NCI bulletin, the assay includes killing of T4 lymphocytes by HIV. Amounts of HIV are added to cells, with a minimum of two cycles of virus reproduction found to be necessary to obtain the required cell killing. Compounds that interact with virions, cells, or virus gene-products to interfere with viral activities will protect cells from cytolysis. All were compared with a positive (e.g., AZT-treated) control evaluation at the same time under identical conditions. The procedure is set forth as follows:
(§2) A candidate compound is first dissolved in a suitable solvent, preferably dimethyl sulfoxide, then diluted 1:100 in cell culture medium before preparing serial half-log10 dilutions. T4 lymphocytes (CEM cell line) are then added and after a brief interval HIV-1 is added, resulting in a 1:200 final dilution of the compound. Uninfected cells with the compound serve as a toxicity control, and infected and uninfected without the compound serve as basic controls. Cultures are then incubated at 37° in a 5% carbon dioxide atmosphere for 6 days. The tetrazolium salt, XTT, is added to all wells, and cultures are incubated to allow formazan color development by viable cells. Individual wells are analyzed spectrophotometrically to quantitate formazan product, and in addition are viewed microscopically for detection of viable cells and confirmation of protective activity. Drug-treated virus-infected cells are compared with drug-treated noninfected cells and with other appropriate controls (untreated infected and untreated noninfected cells, drug-containing wells without cells, etc.) on the same plate. Data are reviewed in comparison with other tests performed at the same time and a determination as to activity is made.

[2] = system: T4 lymphocytes (CEM cell line); assay: Cell growth / toxicity control in uninfected T4 lymphocytes (CEM), XTT-formazan; type: cell-based; details: Homo sapiens, CCRF-CEM; for IC50: 144 h, approximate values; for activity at 20 µM: dose 2.00 × 10^-5 Molar; for activity at 2 µM: dose 2.00 × 10^-6 Molar; for activity at 0.2 µM: dose 2.00 × 10^-7 Molar; for activity at 0.02 µM: dose 2.00 × 10^-8 Molar; for activity at 6.32 µM: dose 6.32 × 10^-6 Molar; for activity at 0.633 µM: dose 6.33 × 10^-7 Molar; for activity at 0.0634 µM: dose 6.34 × 10^-8 Molar; for activity at 0.00635 µM: dose 6.35 × 10^-9 Molar
From the text: as §1, §2

[3] = Human immunodeficiency virus 1, CCRF-CEM
[4] = Human immunodeficiency virus 1, CCRF-CEM, read-out: Percent of Protection
[5] = Human immunodeficiency virus 1, Lymphocyte, read-out: Percent of Control, Infected
[6] = read-out: Percent of Control, Uninfected
[7] = read-out: IC50 (50% inhibitory concentration for cell growth), uninfected CEM cells, 6 days, XTT

Compound | EC50 [1, 3] [nM] | inhibition at 20 µM [1, 4] [%] | inhibition at 2 µM [1, 4] [%] | inhibition at 0.2 µM [1, 4] [%] | activity at 20 µM [1, 5] [%] | activity at 2 µM [1, 5] [%] | activity at 0.2 µM [1, 5] [%] | TI50 (IC/EC), Therapeutic Index [1] | activity at 20 µM [2, 6] [%] | activity at 2 µM [2, 6] [%] | activity at 0.2 µM [2, 6] [%] | inhibition at 0.02 µM [1, 4] [%] | inhibition at 6.32 µM [1, 4] [%] | inhibition at 0.633 µM [1, 4] [%] | inhibition at 0.0634 µM [1, 3] [%] | inhibition at 0.00635 µM [1, 3] [%] | activity at 0.02 µM [1, 5] [%] | activity at 6.32 µM [1, 5] [%] | activity at 0.633 µM [1, 5] [%] | activity at 0.0634 µM [1, 5] [%] | other results
O=[N+]([O-])c1ccccc1S(=O)(=O)c1cccc2c1NCCC2 [Compound 46, 8-(2-nitrophenylsulfonyl)-1,2,3,4-tetrahydroquinoline] | 1320 | 76.4 | 69.4 | 6.11 | 76.8 | 70 | 7.99 | 3.78 × 10^+1 | 95.8 | 95.4 | 98.9 |  |  |  |  |  |  |  |  |  | inhibition at 200 µM ([1]; Human immunodeficiency virus 1, CCRF-CEM, dose 2.00 × 10^-4 Molar, read-out: Percent of Protection): -0.28%; inhibition at 63.2 µM ([1]; Human immunodeficiency virus 1, CCRF-CEM, dose 6.32 × 10^-5 Molar, read-out: Percent of Protection): 33.6%; inhibition at 6.33 µM ([1]; Human immunodeficiency virus 1, CCRF-CEM, dose 6.33 × 10^-6 Molar, read-out: Percent of Protection): 89.1%; inhibition at 0.634 µM ([1]; Human immunodeficiency virus 1, CCRF-CEM, dose 6.34 × 10^-7 Molar, read-out: Percent of Protection): 16.3%; inhibition at 0.0635 µM ([1]; Human immunodeficiency virus 1, CCRF-CEM, dose 6.35 × 10^-8 Molar, read-out: Percent of Protection): -1.64%; activity at 200 µM ([1]; Human immunodeficiency virus 1, Lymphocyte, dose 2.00 × 10^-4 Molar, read-out: Percent of Control, Infected): 1.73%; activity at 63.2 µM ([1]; Human immunodeficiency virus 1, Lymphocyte, dose 6.32 × 10^-5 Molar, read-out: Percent of Control, Infected): 35%; activity at 6.33 µM ([1]; Human immunodeficiency virus 1, Lymphocyte, dose 6.33 × 10^-6 Molar, read-out: Percent of Control, Infected): 89.3%; activity at 0.634 µM ([1]; Human immunodeficiency virus 1, Lymphocyte, dose 6.34 × 10^-7 Molar, read-out: Percent of Control, Infected): 17.9%; activity at 0.0635 µM ([1]; Human immunodeficiency virus 1, Lymphocyte, dose 6.35 × 10^-8 Molar, read-out: Percent of Control, Infected): 0.39%; IC50 ([2]; uninfected CEM cells, 6 days, XTT, read-out: IC50 (50% inhibitory concentration for cell growth)): 49900 nM; activity at 200 µM ([2]; dose 2.00 × 10^-4 Molar, read-out: Percent of Control, Uninfected): 1.77%; activity at 63.2 µM ([2]; dose 6.32 × 10^-5 Molar, read-out: Percent of Control, Uninfected): 38.1%; activity at 6.33 µM ([2]; dose 6.33 × 10^-6 Molar, read-out: Percent of Control, Uninfected): 94%; activity at 0.634 µM ([2]; dose 6.34 × 10^-7 Molar, read-out: Percent of Control, Uninfected): 100%; activity at 0.0635 µM ([2]; dose 6.35 × 10^-8 Molar, read-out: Percent of Control, Uninfected): 98.9%
O=[N+]([O-])c1ccccc1S(=O)(=O)c1cc(Cl)cc2c1NCCC2 [Compound 47, 8-(2-nitrophenylsulfonyl)6chloro-1,2,3,4-tetrahydroquinoline] | 312 | 86.2 | 88.8 | 25.3 | 86.2 | 88.8 | 25.3 | 6.41 × 10^+1 | 96.1 | 92.6 | 87.1 | 6 | 102 | 90 | 8.87 | 3 | 6 | 102 | 90 | 8.87 | activity at 0.00635 µM [1, 5]: 3%; IC50 [2, 7]: > 20000 nM; activity at 0.02 µM [2, 6]: 91.2%; activity at 6.32 µM [2, 6]: 104%; activity at 0.633 µM [2, 6]: 86.3%; activity at 0.0634 µM [2, 6]: 92%; activity at 0.00635 µM [2, 6]: 91.2%
Cc1cc2c(c(S(=O)(=O)c3ccccc3[N+](=O)[O-])c1)NCCC2 [Compound 50, 8-(2-nitrophenyIsulfonyl)6-methyl-1,2,3,4-tetrahydroquinoline] | 75.1 | 97.4 | 107 | 86.3 | 97.6 | 106 | 87.6 | > 2.66 × 10^-2 | 101 | 91 | 87.1 | -2.76 | 109 | 84.2 | 44.1 | -3.62 | 6.49 | 108 | 85.7 | 49.1 | activity at 0.00635 µM [1, 5]: 5.71%; IC50 [2, 7]: > 20000 nM; activity at 0.02 µM [2, 6]: 88.4%; activity at 6.32 µM [2, 6]: 91.2%; activity at 0.633 µM [2, 6]: 89.3%; activity at 0.0634 µM [2, 6]: 90.5%; activity at 0.00635 µM [2, 6]: 90.2%
